Type in all cases: functional
One test deals with Rhynchosporium secalis. Put plainly: Fungicidal activity against Rhynchosporium secalis IFO-5290 assessed as mycelial growth inhibition at 25 mg/L after 14 days. As to conditions: IFO-5290, 336 h, read-out: GI.
In another test the test system is Microdochium nivale. Put plainly: Fungicidal activity against Microdochium nivale IFO-7432 assessed as mycelial growth inhibition at 25 mg/L after 3 days. Particulars: IFO-7432, 72 h, read-out: GI.
The test system of another test is Pyrenophora graminea. Put plainly: Fungicidal activity against Pyrenophora graminea IFO-7507 assessed as mycelial growth inhibition at 25 mg/L after 3 days. As to conditions: IFO-7507, 72 h, read-out: GI.
In the next test the test system is Gaeumannomyces graminis. Put plainly: Fungicidal activity against Gaeumannomyces graminis MAFF305168 assessed as mycelial growth inhibition at 25 mg/L after 1 day. As to conditions: MAFF305168, 24 h, read-out: GI.
A further test concerns Rhizoctonia solani. Put plainly: Fungicidal activity against Rhizoctonia solani ET0007 assessed as mycelial growth inhibition at 25 mg/L after 1 day. Particulars: ET0007, 24 h, read-out: GI.
For the next test, the system named is Fusarium graminearum. The test can be described thus: Fungicidal activity against Fusarium graminearum H3 assessed as mycelial growth inhibition at 25 mg/L after 3 days. As to conditions: H3, 72 h, read-out: GI.
For another test, the system named is Cercospora beticola. Put plainly: Fungicidal activity against Cercospora beticola Be-2-6 assessed as mycelial growth inhibition at 25 mg/L after 7 days. Particulars: Be-2-6, 168 h, read-out: GI.
Another test deals with Zymoseptoria tritici. The test can be described thus: Fungicidal activity against Zymoseptoria tritici S3 assessed as mycelial growth inhibition at 25 mg/L after 14 days. Particulars: S3, 336 h, read-out: GI.
The test system of a further test is Alternaria alternata. The test can be described thus: Fungicidal activity against Alternaria alternata APS-38 assessed as mycelial growth inhibition at 25 mg/L after 3 days. As to conditions: APS-38, 72 h, read-out: GI.

Structures are written as SMILES.

For the compound `CCn1oc(C)cc1=O`, the inhibition of growth at 25 µg/mL in the test with Rhynchosporium secalis worked out at 13%; in the test on Microdochium nivale it was 0%; in the test with Pyrenophora graminea it was 6%; with Gaeumannomyces graminis, 3%; in the test with Rhizoctonia solani, 0%; in the test with Fusarium graminearum it was 4%. Moreover, the inhibition of growth at 25 µg/mL in the test with Cercospora beticola came out at 2%; with Zymoseptoria tritici it was 0%; in the test with Alternaria alternata, 21%.

As for `CCCn1oc(C)cc1=O`, the inhibition of growth at 25 µg/mL in the test on Rhynchosporium secalis worked out at 2%; in the test with Microdochium nivale it was 4%; in the test on Pyrenophora graminea it was 16%; in the test on Gaeumannomyces graminis it was 3%; with Rhizoctonia solani, 15%; in the test on Fusarium graminearum, 8%. Moreover, the inhibition of growth at 25 µg/mL with Cercospora beticola turned out to be 4%; in the test on Zymoseptoria tritici, 0%; in the test with Alternaria alternata, 11%.

On to `Cc1cc(=O)n(Cc2ccccc2)o1`, for which the inhibition of growth at 25 µg/mL in the test with Rhynchosporium secalis was found to be 0%; in the test with Microdochium nivale, 4%; in the test on Pyrenophora graminea it was 46%; in the test on Gaeumannomyces graminis, 0%; in the test on Rhizoctonia solani, 10%; in the test on Fusarium graminearum, 6%. Besides, the inhibition of growth at 25 µg/mL in the test on Cercospora beticola amounted to 4%; in the test with Zymoseptoria tritici it was 6%; in the test with Alternaria alternata, 9%.

In the case of `CC(=O)n1oc(C)cc1=O`, the inhibition of growth at 25 µg/mL is 100% in the test on Rhynchosporium secalis; 79% in the test with Microdochium nivale; 72% in the test with Pyrenophora graminea; 72% in the test on Gaeumannomyces graminis; 26% in the test with Rhizoctonia solani; 50% in the test on Fusarium graminearum. The figures for the inhibition of growth at 25 µg/mL with Cercospora beticola, with Zymoseptoria tritici and with Alternaria alternata were 92%, 98% and 90%, respectively.

As for `CCC(=O)n1oc(C)cc1=O`, the inhibition of growth at 25 µg/mL in the test on Rhynchosporium secalis was 100%; in the test on Microdochium nivale, 68%; in the test on Pyrenophora graminea, 88%; in the test on Gaeumannomyces graminis, 50%; in the test with Rhizoctonia solani, 22%; in the test with Fusarium graminearum it was 32%. Also, the inhibition of growth at 25 µg/mL in the test with Cercospora beticola amounted to 94%; with Zymoseptoria tritici, 69%; with Alternaria alternata, 87%.

With `Cc1cc(=O)n(C(=O)C(C)(C)C)o1`, the inhibition of growth at 25 µg/mL in the test with Rhynchosporium secalis was determined as 100%; in the test on Microdochium nivale it was 82%; in the test with Pyrenophora graminea it was 95%; in the test on Gaeumannomyces graminis it was 83%; in the test with Rhizoctonia solani, 43%; with Fusarium graminearum, 40%. Also, the inhibition of growth at 25 µg/mL is 85% in the test with Cercospora beticola, 64% with Zymoseptoria tritici and 84% in the test with Alternaria alternata.

`Cc1cc(=O)n(C(=O)CCl)o1`: the inhibition of growth at 25 µg/mL in the test with Rhynchosporium secalis amounted to 100%; in the test on Microdochium nivale, 72%; in the test with Pyrenophora graminea, 89%; in the test on Gaeumannomyces graminis, 66%; with Rhizoctonia solani, 19%; in the test on Fusarium graminearum, 28%. For the same compound, the figures for the inhibition of growth at 25 µg/mL with Cercospora beticola, in the test with Zymoseptoria tritici and in the test with Alternaria alternata were 94%, 70% and 81%, respectively.

Take `COCC(=O)n1oc(C)cc1=O`: the inhibition of growth at 25 µg/mL came out at 100% in the test with Rhynchosporium secalis; 45% in the test with Microdochium nivale; 82% in the test with Pyrenophora graminea; 54% in the test on Gaeumannomyces graminis; 68% in the test on Rhizoctonia solani; 37% in the test on Fusarium graminearum. The figures for the inhibition of growth at 25 µg/mL with Cercospora beticola, with Zymoseptoria tritici and in the test with Alternaria alternata were 91%, 63% and 62%, respectively.

With `Cc1cc(=O)n(C(=O)CC(C)(C)C)o1`, the inhibition of growth at 25 µg/mL was 96% in the test with Rhynchosporium secalis; 76% in the test with Microdochium nivale; 76% in the test on Pyrenophora graminea; 97% with Gaeumannomyces graminis; 71% in the test with Rhizoctonia solani; 47% in the test with Fusarium graminearum. Besides, the inhibition of growth at 25 µg/mL with Cercospora beticola is 93%; in the test with Zymoseptoria tritici it was 70%; in the test with Alternaria alternata it was 64%.

For `Cc1cc(O)no1` [HYMEXAZOL], the inhibition of growth at 25 µg/mL with Rhynchosporium secalis stood at 100%; with Microdochium nivale, 77%; with Pyrenophora graminea, 80%; in the test on Gaeumannomyces graminis it was 56%; with Rhizoctonia solani, 28%; in the test with Fusarium graminearum, 45%. For the same compound, the figures for the inhibition of growth at 25 µg/mL with Cercospora beticola, in the test with Zymoseptoria tritici and in the test with Alternaria alternata were 88%, 86% and 74%, respectively.

Values taken from ChEMBL document CHEMBL3044528, “Potential new fungicides: N-acyl-5-methyl-3(2H)-isoxazolone derivatives” (2012).
